Non-standard residues stand in square brackets, D forms with d. Groups on a side chain read outwards from the residue. No end group written: not given here. disulfide linker = not defined here; Pen = CC(C)(S)[C@H](N)C(=O)O
Experiments:
Assay type in all cases: in vivo
[1] = test system: DIO mice; assay: Body weight in diet-induced obesity (DIO) mice; conditions: for reduction in body weight (BW %): FIG. 8, after 10 days of treatment; for body weight percentage (BW %) reduction: FIG. 4, 40 nmol/kg or equimolar, DIO mice treated for 8 days; for reduction in body weight %: FIG. 14, DIO mice treated for 5 days, N=7
Description: (§1) C57BL6J male mice, in the following referred to as diet-induced obesity (DIO) mice, were maintained on a high-fat diet (58% energy from fat) and had, for each study, an average body weight of more than 45 gram prior to study start. Mice were either housed individually or double-housed. The mice were maintained on a 12 h dark-light cycle at 21-23° C. Compounds were administered subcutaneously once daily (between 2 pm-5 pm) and food intake (FI) and body weight (BW) measured at the corresponding time. For body composition, measures of fat and lean mass were performed prior to the study (1-3 days prior to study start) and on the final day of the study using an MRI scanner (EchoMRI). The group of mice injected with a vehicle (saline) served as the control group.

[2] = test system: DIO mice; assay: Body composition (fat and lean mass, MRI) in DIO mice; conditions: for change in fat body mass (Delta change) / change in lean body mass (Delta change): FIG. 7, 40 nmol/kg or equimolar, DIO mice treated for 8 days
Description: as §1

[3] = test system: DIO mice; assay: Food intake in diet-induced obesity (DIO) mice
Description: as §1

[4] = 100 nmol/kg or equimolar, DIO mice
[5] = FIG. 11, 100 nmol/kg, DIO mice treated for 10 days
[6] = FIG. 9, 100 nmol/kg or equimolar, DIO mice treated for 10 days
[7] = FIG. 5, equimolar doses, DIO mice treated for 8 days, compared to vehicle and memantine
[8] = FIG. 6, 40 nmol/kg or equimolar, DIO mice treated for 8 days

C[C@]12N[C@H](Cc3ccccc31)c1ccccc12 [MK801, reference compound]
reduction in body weight (BW %) [1, 4]: nearly no percentage change

CC12CC3CC(C)(C1)CC(N)(C3)C2 [memantine, reference compound]
change in fat body mass (Delta change) [2]: reduction in fat body mass | change in lean body mass (Delta change) [2]: nearly no change

GIP/GLP-1/MK801 conjugate: co-agonist GIP/GLP-1 Pen40/MK801 conjugate, peptide according to SEQ ID NO:9 (YGEGTFTSDYSIYLDKQAAKEFVNWLLAGGPSSGAPPPS[Pen]([disulfide linker-MK801]); not fully specified (C-terminus); printed as YX1EGT FTSDY SIYLD KQAAX1 EFVNW LLAGG PSSGA PPPSX2; reading uncertain; also: MK801 attached via disulfide linker; listed as Homo sapiens)
cumulative food intake (Cumulative FI) ([3]; FIG. 34, 50 nmol/kg, DIO mice treated for 7 days, control group 15 g): approximately 3 g | overall reduction in body weight compared to the control group ([1]; FIG. 33, 50 nmol/kg, DIO mice treated for 7 days): approximately 25%

GLP-1 Cys40/MK801: peptide of SEQ ID NO:1 conjugated with chemical linker derivatized MK801, cysteine linked (HAEGTFTSDVSSYLEEQAAKEFIAWLVKGGPSSGAPPPSC; not fully specified (residue 40, C-terminus); ends and bridges not checked; listed as Homo sapiens)
change in fat mass (reduction) [2, 5]: ~5 g | change in lean body mass [2, 5]: reduction in both fat and lean body mass | cumulative food intake (FI Cumulative) [3, 6]: approximately 13 g/day | cumulative food intake less than the vehicle-treated mice ([3]; FIG. 9, 100 nmol/kg, DIO mice treated for 10 days): approximately 10 g/day | daily food intake (FI daily) ([3]; FIG. 10, 100 nmol/kg, DIO mice treated for 10 days, compared to vehicle): reduction in food intake was observed all 10 days | reduction in body weight (BW %) [1, 4]: ~12%

GLP-1 Cys40/Memantine: conjugate of peptide of SEQ ID NO:1 and memantine appended via disulfide linker, unmodified cysteine (cysteine linked) (HAEGTFTSDVSSYLEEQAAKEFIAWLVKGGPSSGAPPPSC; not fully specified (residue 40, C-terminus); ends and bridges not checked; listed as Homo sapiens)
change in fat body mass (Delta change) [2]: approximately 4 g | change in lean body mass (Delta change) [2]: nearly no change | cumulative food intake (FI Cumulative) [3, 7]: lowered cumulative food intake | daily food intake (FI daily) [3, 8]: lowered daily food intake | body weight percentage (BW %) reduction [1]: approximately 7%

GLP-1 Cys40: the peptide of SEQ ID NO:1, C-terminal unmodified cysteine (HAEGTFTSDVSSYLEEQAAKEFIAWLVKGGPSSGAPPPSC; not fully specified (C-terminus); ends and bridges not checked; listed as Homo sapiens)
change in fat body mass (Delta change) [2]: reduction in fat body mass | change in lean body mass (Delta change) [2]: nearly no change | cumulative food intake (FI Cumulative) [3, 7]: lowered cumulative food intake | daily food intake (FI daily) [3, 8]: lowered daily food intake | daily food intake (FI daily) ([3]; FIG. 6, 40 nmol/kg or equimolar, DIO mice treated for 8 days, listed as GLP-1): only a slight reduction in food intake | cumulative food intake (FI Cumulative) [3, 6]: lowered cumulative food intake | body weight percentage (BW %) reduction [1]: lowered BW % | reduction in body weight (BW %) [1, 4]: approximately 8% | body weight reduction ([1]; FIG. 12, 100 nmol/kg or equimolar, DIO mice, after 5 days of treatment): approximately 4% | reduction in body weight % ([1]; 100 nmol/kg or equimolar): approximately 6%

GLP-1 Pen40: peptide of SEQ ID NO:1 with the Pen40 (L-penicillamine) modification (HAEGTFTSDVSSYLEEQAAKEFIAWLVKGGPSSGAPPPSC; not fully specified (residue 40, C-terminus); ends and bridges not checked; listed as Homo sapiens)
reduction in body weight % ([1]; 100 nmol/kg or equimolar): approximately 6%

Reference: US20230183335A1, “GLP1R AGONIST NMDAR ANTAGONIST CONJUGATES” (KØBENHAVNS UNIVERSITET, priority 2020, published 2023)
